One assay addresses KRas G13D (Homo sapiens, UniProt P01116, G13D). Type of assay: binding. The conditions noted are these: single point, 10 nM compound, read-out: Binding to KRas (% inhibition at 10 nM) G13D.
A further assay has as its target KRas G12A (Homo sapiens, UniProt P01116, G12A). The format is binding. Conditions: single point, 10 nM compound, read-out: Binding to KRas (% inhibition at 10 nM) G12A.
Another assay relates to MKN1 cells. Kind of assay: Inhibition of KRas-mediated phosphorylation of ERK (Cisbio HTRF pERK), MKN1 cells. The format is cell-based. The conditions noted are these: Homo sapiens, MKN-1, 3 hour compound incubation, Cisbio pERK HTRF. The method, boiled down: (§1)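 On the first day, plate 6,000 cells into each well in RPMI medium with 10% fetal bovine serum.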
In general terms: TR-FRET usually uses a lanthanide donor and a delayed reading to cut background.

The subject of a further assay is H358 cells. Kind of assay: Inhibition of KRas-mediated phosphorylation of ERK (Cisbio HTRF pERK), H358 cells. Type of assay: cell-based. Conditions: Homo sapiens; for IC50: NCI-H358, 3 h, 3 hr compound incubation, Cisbio pERK HTRF; for inhibition at 0.1 µM: NCI-H358, single point at 100 nM, 3 hrs compound incubation.
Another assay concerns ASPC1 cells. Kind of assay: Inhibition of KRas-mediated phosphorylation of ERK (Cisbio HTRF pERK), ASPC1 cells. The format is cell-based. Conditions: Homo sapiens, AsPC-1 cells; for IC50: ASPC1, 3 h, 3 hr compound incubation, Cisbio pERK HTRF; for inhibition at 0.1 µM: ASPC1, single point at 100 nM, 3 hrs compound incubation.
For another assay, the system named is H460 cells. Kind of assay: Inhibition of KRas-mediated phosphorylation of ERK (Cisbio HTRF pERK), H460 cells. Type of assay: cell-based. Conditions: Homo sapiens; for IC50: NCI-H460, 3 h, 3 hr compound incubation, Cisbio pERK HTRF; for inhibition at 0.1 µM: NCI-H460, single point at 100 nM, 3 hrs compound incubation.
Another assay deals with KRas WT (Homo sapiens, UniProt P01116). Kind of assay: KRas binding assay (TR-FRET displacement), KRas WT. Conditions: single point, 10 nM compound.
KRas WT, sequence (P01116 1-169 isoform P01116-2): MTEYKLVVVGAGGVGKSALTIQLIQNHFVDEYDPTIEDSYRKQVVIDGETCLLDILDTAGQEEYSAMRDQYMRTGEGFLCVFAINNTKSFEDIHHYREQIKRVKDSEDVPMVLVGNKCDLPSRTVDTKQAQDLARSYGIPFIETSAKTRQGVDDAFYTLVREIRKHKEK
A further assay relates to HCT116 cells. Kind of assay: Inhibition of KRas-mediated phosphorylation of ERK (Cisbio HTRF pERK), HCT116 cells. The conditions noted are these: Homo sapiens; for IC50: HCT-116, 3 h, 3 hr compound incubation, Cisbio pERK HTRF; for inhibition at 0.1 µM: HCT-116, single point at 100 nM, 3 hrs compound incubation. Type of assay: cell-based.
The next assay addresses KRas G12R (Homo sapiens, UniProt P01116, G12R). Kind of assay: biochemical. The conditions noted are these: Binding to KRas (IC50 nM) G12R, TR-FRET displacement, KRas G12R.
Another assay addresses KRas G12V (Homo sapiens, UniProt P01116, G12V). Kind of assay: biochemical. Conditions: Binding to KRas (IC50 nM) G12V, TR-FRET displacement, KRas G12V.
In the next assay the test system is PSN1 cells. Kind of assay: Inhibition of KRas-mediated phosphorylation of ERK (Cisbio HTRF pERK), PSN1 cells. Type of assay: cell-based. The conditions noted are these: Homo sapiens, PSN1, 3 h, 3 hour compound incubation, Cisbio pERK HTRF. The essentials: as §1
The next assay addresses KRas G12S (Homo sapiens, UniProt P01116, G12S). The format is binding. The conditions noted are these: single point, 10 nM compound, read-out: Binding to KRas (% inhibition at 10 nM) G12S.
The subject of a further assay is A549 cells. Kind of assay: Inhibition of KRas-mediated phosphorylation of ERK (Cisbio HTRF pERK), A549 cells. Type of assay: cell-based. Conditions: Homo sapiens; for IC50: A549, 3 h, 3 hr compound incubation, Cisbio pERK HTRF; for inhibition at 0.1 µM: single point at 100 nM, 3 hrs compound incubation.
The next assay deals with KRas Q61H (Homo sapiens, UniProt P01116, Q61H). Kind of assay: KRas binding assay (TR-FRET displacement), KRas Q61H. The conditions noted are these: single point, 10 nM compound.
KRas Q61H, sequence (P01116 1-169 isoform P01116-2 Q61H): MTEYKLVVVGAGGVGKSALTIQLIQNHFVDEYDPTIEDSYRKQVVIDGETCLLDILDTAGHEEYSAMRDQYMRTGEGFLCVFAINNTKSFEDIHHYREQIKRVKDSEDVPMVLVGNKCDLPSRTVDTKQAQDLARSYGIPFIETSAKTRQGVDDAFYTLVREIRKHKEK
For the next assay, the system named is H727 cells. Kind of assay: Inhibition of KRas-mediated phosphorylation of ERK (Cisbio HTRF pERK), H727 cells. The format is cell-based. Conditions: Homo sapiens; for IC50: NCI-H727, 3 h, 3 hr compound incubation, Cisbio pERK HTRF; for inhibition at 0.1 µM: NCI-H727, single point at 100 nM, 3 hrs compound incubation.
For a further assay, the target named is KRas G12C (Homo sapiens, UniProt P01116, G12C). Type of assay: binding. The conditions noted are these: single point, 10 nM compound, read-out: Binding to KRas (% inhibition at 10 nM) G12C.
KRas G12C, sequence (P01116 1-169 isoform P01116-2 G12C): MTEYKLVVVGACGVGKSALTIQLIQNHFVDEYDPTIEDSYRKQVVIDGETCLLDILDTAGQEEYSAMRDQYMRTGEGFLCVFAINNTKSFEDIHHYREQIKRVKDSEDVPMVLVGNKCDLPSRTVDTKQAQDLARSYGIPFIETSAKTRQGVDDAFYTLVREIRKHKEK
In a further assay the target is KRas G12D (Homo sapiens, UniProt P01116, G12D). Kind of assay: biochemical. The conditions noted are these: Binding to KRas (IC50 nM) G12D, TR-FRET displacement, KRas G12D.
KRas G12D, sequence (P01116 1-169 isoform P01116-2 G12D): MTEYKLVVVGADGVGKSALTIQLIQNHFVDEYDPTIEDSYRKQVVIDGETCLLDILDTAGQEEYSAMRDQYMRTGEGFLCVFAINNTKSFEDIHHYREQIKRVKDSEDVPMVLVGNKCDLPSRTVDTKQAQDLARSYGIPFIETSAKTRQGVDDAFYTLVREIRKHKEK

The source of these data is US20250368649A1, “TETRAHYDROPYRIDOPYRIMIDINE PAN-KRAS INHIBITORS” (Mirati Therapeutics, Inc., priority 2022, published 2025).

Usually inhibition stands for the relative decrease from the control value, in per cent. In general, IC50 refers to the point on the concentration scale where inhibition reaches its midpoint. A low value points to inhibition by little substance.

KRas G12V, sequence (P01116 1-169 isoform P01116-2 G12V): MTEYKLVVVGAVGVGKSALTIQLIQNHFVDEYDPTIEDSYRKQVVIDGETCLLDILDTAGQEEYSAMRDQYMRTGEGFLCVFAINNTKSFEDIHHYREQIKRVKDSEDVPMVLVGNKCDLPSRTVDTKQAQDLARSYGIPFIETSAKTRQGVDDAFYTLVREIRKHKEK
KRas G13D, sequence (P01116 1-169 isoform P01116-2 G13D): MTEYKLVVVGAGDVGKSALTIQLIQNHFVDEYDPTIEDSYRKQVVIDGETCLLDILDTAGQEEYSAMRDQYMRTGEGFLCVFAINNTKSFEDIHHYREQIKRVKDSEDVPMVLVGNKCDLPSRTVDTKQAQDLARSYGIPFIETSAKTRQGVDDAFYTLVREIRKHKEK
KRas G12S, sequence (P01116 1-169 isoform P01116-2 G12S): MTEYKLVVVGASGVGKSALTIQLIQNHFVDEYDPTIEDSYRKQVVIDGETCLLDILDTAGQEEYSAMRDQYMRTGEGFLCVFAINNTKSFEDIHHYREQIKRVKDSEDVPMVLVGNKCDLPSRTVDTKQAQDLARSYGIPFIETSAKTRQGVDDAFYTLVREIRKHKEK
KRas G12A, sequence (P01116 1-169 isoform P01116-2 G12A): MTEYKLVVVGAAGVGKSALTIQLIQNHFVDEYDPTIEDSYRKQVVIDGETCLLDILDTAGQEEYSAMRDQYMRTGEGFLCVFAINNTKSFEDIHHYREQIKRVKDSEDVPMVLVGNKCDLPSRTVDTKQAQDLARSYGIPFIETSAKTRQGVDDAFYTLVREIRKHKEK
KRas G12R, sequence (P01116 1-169 isoform P01116-2 G12R): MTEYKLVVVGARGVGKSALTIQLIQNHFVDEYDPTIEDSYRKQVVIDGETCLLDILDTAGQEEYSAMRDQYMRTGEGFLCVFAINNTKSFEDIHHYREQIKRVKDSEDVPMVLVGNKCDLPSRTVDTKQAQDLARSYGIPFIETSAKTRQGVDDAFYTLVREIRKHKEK

For `CCc1c(F)ccc2cc(O)cc(N3CCc4c(nc(OC[C@@]56CCCN5C[C@H](F)C6)nc4N4CCCn5nc(C(=O)N6CC7CCC6CC7)cc5C4)C3)c12` [Example 339, 2-azabicyclo[2.2.2]octan-2-yl(5-(7-(8-ethyl-7-fluoro-3-hydroxynaphthalen-1-yl)-2-(((2R,7aS)-2-fluorohexahydro-1H-pyrrolizin-7a-yl)methoxy)-5,6,7,8-tetrahydropyrido[3,4-d]pyrimidin-4-yl)-5,6,7,8-tetrahydro-4H-pyrazolo[1,5-a][1,4]diazepin-2-yl)methanone], the inhibition at 0.01 µM came to 92% on KRas G13D; 92% on KRas G12A; 93% at KRas WT; 97% at KRas G12S; 94% on KRas Q61H; 98% at KRas G12C. The IC50 in the assay on MKN1 cells is 8.4 nM; with H358 cells it was 4 nM; with ASPC1 cells, 6 nM; with H460 cells, 43 nM; with HCT116 cells, 156 nM; on KRas G12R, less than 2 nM. Also, the IC50 on KRas G12V is less than 2 nM; in the assay on PSN1 cells it was 5720 nM; in the assay with A549 cells, 17 nM; in the assay with H727 cells, 6 nM; at KRas G12D, 2 nM. Moreover, the inhibition at 0.1 µM in the assay on H358 cells came to 95%; in the assay with ASPC1 cells, 97%; with H460 cells it was 59%; in the assay on HCT116 cells, 20%; with A549 cells it was 80%; in the assay with H727 cells it was 74%.
In the case of `CCc1c(F)ccc2cc(O)cc(N3CCc4c(nc(OC[C@@]56CCCN5C[C@H](F)C6)nc4N4CCCn5nc(C(=O)N6C7CCC6CC7)cc5C4)C3)c12` [Example 340, 7-azabicyclo[2.2.1]heptan-7-yl(5-(7-(8-ethyl-7-fluoro-3-hydroxynaphthalen-1-yl)-2-(((2R,7aS)-2-fluorohexahydro-1H-pyrrolizin-7a-yl)methoxy)-5,6,7,8-tetrahydropyrido[3,4-d]pyrimidin-4-yl)-5,6,7,8-tetrahydro-4H-pyrazolo[1,5-a][1,4]diazepin-2-yl)methanone], the inhibition at 0.01 µM on KRas G13D was found to be 94%; at KRas G12A, 97%; at KRas WT it was 94%; at KRas G12S, 99%; on KRas Q61H it was 97%; on KRas G12C, 98%. Moreover, the IC50 with MKN1 cells was 7.5 nM; in the assay on H358 cells, 3 nM; in the assay with ASPC1 cells, 8 nM; in the assay on H460 cells it was 31 nM; with HCT116 cells it was 110 nM; at KRas G12R, less than 2 nM. In addition, the IC50 on KRas G12V is less than 2 nM; in the assay on PSN1 cells, 2510 nM; in the assay on A549 cells, 11 nM; in the assay on H727 cells, 4 nM; on KRas G12D it was less than 2 nM. The inhibition at 0.1 µM amounted to 96% in the assay on H358 cells; 96% in the assay with ASPC1 cells; 69% with H460 cells; 32% with HCT116 cells; 82% in the assay on A549 cells; 80% with H727 cells.
Turning to `CCc1c(F)ccc2cc(O)cc(N3CCc4c(nc(OC[C@@]56CCCN5C[C@H](F)C6)nc4N4CCCn5nc(C(=O)N6C7CCCC6CC7)cc5C4)C3)c12` [Example 341, 8-azabicyclo[3.2.1]octan-8-yl(5-(7-(8-ethyl-7-fluoro-3-hydroxynaphthalen-1-yl)-2-(((2R,7aS)-2-fluorohexahydro-1H-pyrrolizin-7a-yl)methoxy)-5,6,7,8-tetrahydropyrido[3,4-d]pyrimidin-4-yl)-5,6,7,8-tetrahydro-4H-pyrazolo[1,5-a][1,4]diazepin-2-yl)methanone], the inhibition at 0.01 µM on KRas G13D is 92%; on KRas G12A, 87%; on KRas WT, 93%; on KRas G12S it was 96%; on KRas Q61H, 95%; at KRas G12C, 97%. Further, the IC50 with MKN1 cells came out at 6.7 nM; in the assay with H358 cells, 3 nM; in the assay on ASPC1 cells, 8 nM; with H460 cells it was 42 nM; with HCT116 cells, 141 nM; at KRas G12R, 2 nM. For the same molecule, the IC50 is less than 2 nM on KRas G12V; 4530 nM with PSN1 cells; 19 nM in the assay with A549 cells; 9 nM in the assay on H727 cells; 2 nM on KRas G12D. For the same molecule, the inhibition at 0.1 µM amounted to 91% with H358 cells; 95% in the assay with ASPC1 cells; 77% in the assay on H460 cells; 47% in the assay on HCT116 cells; 75% in the assay on A549 cells; 76% with H727 cells.
As for `CCc1c(F)ccc2cc(O)cc(N3CCc4c(nc(OC[C@@]56CCCN5C[C@H](F)C6)nc4N4CCCn5nc(C(=O)N6CC7CC6C7)cc5C4)C3)c12` [Example 342, 2-azabicyclo[2.1.1]hexan-2-yl(5-(7-(8-ethyl-7-fluoro-3-hydroxynaphthalen-1-yl)-2-(((2R,7aS)-2-fluorohexahydro-1H-pyrrolizin-7a-yl)methoxy)-5,6,7,8-tetrahydropyrido[3,4-d]pyrimidin-4-yl)-5,6,7,8-tetrahydro-4H-pyrazolo[1,5-a][1,4]diazepin-2-yl)methanone], the inhibition at 0.01 µM amounted to 96% at KRas G13D; 96% on KRas G12A; 96% at KRas WT; 99% on KRas G12S; 96% at KRas Q61H; 99% at KRas G12C. The IC50 is 3.9 nM in the assay with MKN1 cells; 2 nM in the assay on H358 cells; 2 nM with ASPC1 cells; 23 nM in the assay with H460 cells; 74 nM with HCT116 cells; less than 2 nM on KRas G12R. The IC50 is less than 2 nM on KRas G12V; 2400 nM in the assay with PSN1 cells; 8 nM with A549 cells; 4 nM in the assay on H727 cells; less than 2 nM at KRas G12D. Also, the inhibition at 0.1 µM with H358 cells turned out to be 100%; in the assay with ASPC1 cells, 96%; in the assay on H460 cells, 86%; in the assay on HCT116 cells it was 59%; in the assay on A549 cells, 87%; in the assay on H727 cells, 80%.
